“And” between values parts separate entries of the source, which are not always exact repeats. Identical values can stand only once.

The nature of data set [1]: In vitro metabolism in human hepatocytes. As to conditions: incubations with hepatocytes and microsomes of rats and humans.
Description: Hepatocyte cell count was ~1.1–1.8 × 10^6 cells/mL. After 3 h, samples were quenched with 3 volumes of acetonitrile, vortex mixed, and centrifuged. The supernatant (5 µL) was analyzed by LC-MS using a Kinetex EVO C18 column (1.7 μm, 2.1 × 150 mm) at 40 °C with a flow rate of 0.4 mL/min. Mobile phase A was 20 mM ammonium acetate in water, and mobile phase B was acetonitrile. The column was initially held at 5% B for 2 min, increased to 75% B over 33 minutes, and then increased to 95% B over 3 min, where it was maintained for 3 minutes before returning to 5% B over 0.5 min for re-equilibration. Mass spectrometry data was acquired using positive ion mode and data-dependent MS^2 acquisition.
Data set [2] in a line: Bioavailability after PO administration (peer review reply). It is filed as in vivo. As to conditions: authors' reply in peer review file.
Data set [3] is described as follows: Body weight in mouse efficacy study. Format: in vivo. As to conditions: in g (unit assumed). The procedure: (§1) Female C.B-17 SCID (Inbred) mice that weighed 16–20 g were inoculated with 10 million HCC2302 lung adenocarcinoma cells (suspended in a mixture of Hank’s Balanced Salt Solution containing Matrigel at a 1:1 ratio) in the right flank subcutaneously. Tumors were monitored until they reached a mean tumor volume of 110–167 mm^3. The mean tumor volume across all three groups was 141 ± 16.64 mm^3 (mean ± SD) at the initiation of dosing (Study WF-31, n = 10). […] Tumor volumes were measured in two dimensions (length and width) using Ultra Cal-IV calipers. The tumor volume was calculated with the following formula: Tumor size (mm^3) = (longer measurement × shorter measurement^2)/2. Animal body weights were measured using an Adventura scale. Percent weight change was calculated using the following formula: Group percent weight change = (new weight − initial weight)/ initial weight) × 100%.
(§2) In a separate study, tumors were monitored until they reached a mean tumor volume of 121–159 mm^3. The mean tumor volume across all three groups was 138 ± 10.26 mm^3 (mean ± SD) at the initiation of dosing (Study WF-34, n = 10).

In another data set the test system is CYP3A4/5. The experiment in a line: Reversible P450 inhibition in HLM. It is filed as biochemical. The conditions noted are these: human, human liver microsomes. The procedure: The reversible P450 inhibition assay was conducted in triplicate on a BioCel 1200 System, V11 (Agilent, CA), as previously described by Kosaka, et al.[28] […] […] P450 activity was expressed as the peak area ratio of a P450-specific metabolite formed relative to its internal standard, and inhibition percentage was calculated from P450 activity of samples relative to the solvent control. Inhibition data were processed using Prism (GraphPad Software, San Diego, CA) to calculate IC50 values for each P450 enzyme.

The subject of the next data set is HCC2302 xenograft. The experiment in a line: Mouse efficacy study, tumor volume. Format: in vivo. The procedure:
as §1, §2

In a further data set the target is T1, CYP2C19 (Homo sapiens, UniProt P33261).
T1 construct: phosphate buffer (100 mM, pH 7.4) containing human liver microsomes (HLM); from tissue; host or cells: human liver microsomes
The experiment in a line: Reversible P450 inhibition in HLM. It is filed as biochemical. The conditions noted are these: substrate Mephenytoin. The procedure:
(§3) The reversible P450 inhibition assay was conducted in triplicate on a BioCel 1200 System, V11 (Agilent, CA), as previously described by Kosaka, et al.[28] […] Individual P450 specific substrates included midazolam for CYP3A4/5, dextromethorphan for CYP2D6, S-(+)-mephenytoin for CYP2C19, S-(-)-warfarin for CYP2C9, paclitaxel for CYP2C8, and tacrine for CYP1A2. P450 activity was expressed as the peak area ratio of a P450-specific metabolite formed relative to its internal standard, and inhibition percentage was calculated from P450 activity of samples relative to the solvent control. Inhibition data were processed using Prism (GraphPad Software, San Diego, CA) to calculate IC50 values for each P450 enzyme.

A further data set deals with T2, CYP2C9 (Homo sapiens, UniProt P11712).
T2 construct: phosphate buffer (100 mM, pH 7.4) containing human liver microsomes (HLM); from tissue; host or cells: human liver microsomes
The experiment in a line: Reversible P450 inhibition in HLM. Format: biochemical. The conditions noted are these: human liver microsomes, pH 7.4, probe S-(-)-warfarin. The procedure:
as §3

The target in another data set is T3, CYP2D6 (Homo sapiens, UniProt P10635).
T3 construct: phosphate buffer (100 mM, pH 7.4) containing human liver microsomes (HLM); from tissue; host or cells: human liver microsomes
Description: Reversible P450 inhibition in HLM. Format: biochemical. As to conditions: human liver microsomes, pH 7.4, probe dextromethorphan, substrate Dextromethorphan. The procedure:
as §3

In the next data set the target is T4, CYP2C8 (Homo sapiens, UniProt P10632).
T4 construct: phosphate buffer (100 mM, pH 7.4) containing human liver microsomes (HLM); from tissue; host or cells: human liver microsomes
T4 sequence (P10632 1-490): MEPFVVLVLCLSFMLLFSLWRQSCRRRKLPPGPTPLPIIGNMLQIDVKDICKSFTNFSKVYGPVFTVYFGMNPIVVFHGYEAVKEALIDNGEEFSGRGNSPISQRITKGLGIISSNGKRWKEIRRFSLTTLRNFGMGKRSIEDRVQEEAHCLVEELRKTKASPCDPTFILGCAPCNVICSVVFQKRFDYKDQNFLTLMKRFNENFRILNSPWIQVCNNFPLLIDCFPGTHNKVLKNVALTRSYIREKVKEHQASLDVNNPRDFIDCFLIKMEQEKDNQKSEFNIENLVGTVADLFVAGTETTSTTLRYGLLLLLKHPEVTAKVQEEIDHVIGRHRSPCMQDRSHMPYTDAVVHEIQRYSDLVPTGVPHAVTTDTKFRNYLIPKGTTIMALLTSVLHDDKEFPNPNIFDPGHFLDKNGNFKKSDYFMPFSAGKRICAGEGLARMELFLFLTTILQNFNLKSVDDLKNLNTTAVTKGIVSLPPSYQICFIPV
Description: Reversible P450 inhibition in HLM. Format: biochemical. The conditions noted are these: human liver microsomes, pH 7.4, probe paclitaxel, substrate Paclitaxel. The procedure: as §3

The next data set has as its target T5, CYP1A2 (Homo sapiens, UniProt P05177).
T5 construct: phosphate buffer (100 mM, pH 7.4) containing human liver microsomes (HLM); from tissue; host or cells: human liver microsomes
T5 sequence (P05177 1-516): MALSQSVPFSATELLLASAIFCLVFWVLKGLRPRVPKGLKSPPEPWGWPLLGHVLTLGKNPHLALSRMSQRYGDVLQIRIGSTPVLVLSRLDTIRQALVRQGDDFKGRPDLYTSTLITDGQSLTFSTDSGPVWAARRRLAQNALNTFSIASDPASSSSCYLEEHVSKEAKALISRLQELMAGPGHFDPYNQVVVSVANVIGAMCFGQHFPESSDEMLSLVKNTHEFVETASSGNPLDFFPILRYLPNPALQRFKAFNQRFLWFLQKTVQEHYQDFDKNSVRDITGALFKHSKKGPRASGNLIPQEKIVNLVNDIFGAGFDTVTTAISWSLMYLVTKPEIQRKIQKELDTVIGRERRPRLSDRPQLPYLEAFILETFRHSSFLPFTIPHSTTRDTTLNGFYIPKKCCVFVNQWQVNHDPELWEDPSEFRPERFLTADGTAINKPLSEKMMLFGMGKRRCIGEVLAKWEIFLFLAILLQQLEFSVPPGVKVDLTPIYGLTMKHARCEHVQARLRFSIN
Description: Reversible P450 inhibition in HLM. As to conditions: human liver microsomes, pH 7.4, probe tacrine, substrate Tacrine. Format: biochemical. The procedure:
as §3

Where [4] appears, read: WF-31, 40 mg/kg IV QW, day 0, 3, 7, 10, 13, 14, 21.

T1 sequence (P33261 whole entry): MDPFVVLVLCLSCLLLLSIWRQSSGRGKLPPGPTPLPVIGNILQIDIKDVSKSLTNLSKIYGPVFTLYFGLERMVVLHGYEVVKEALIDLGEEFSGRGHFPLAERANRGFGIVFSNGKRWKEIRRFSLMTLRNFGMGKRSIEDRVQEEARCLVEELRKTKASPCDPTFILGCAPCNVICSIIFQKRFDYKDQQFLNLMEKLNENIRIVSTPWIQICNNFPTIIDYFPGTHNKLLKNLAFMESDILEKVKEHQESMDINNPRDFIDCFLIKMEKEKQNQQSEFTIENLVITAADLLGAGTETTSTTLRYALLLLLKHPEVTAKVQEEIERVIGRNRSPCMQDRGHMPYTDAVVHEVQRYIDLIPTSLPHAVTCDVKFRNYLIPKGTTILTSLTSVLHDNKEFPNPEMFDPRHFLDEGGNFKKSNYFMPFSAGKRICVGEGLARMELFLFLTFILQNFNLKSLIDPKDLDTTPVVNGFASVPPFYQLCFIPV
T2 sequence (P11712 whole entry): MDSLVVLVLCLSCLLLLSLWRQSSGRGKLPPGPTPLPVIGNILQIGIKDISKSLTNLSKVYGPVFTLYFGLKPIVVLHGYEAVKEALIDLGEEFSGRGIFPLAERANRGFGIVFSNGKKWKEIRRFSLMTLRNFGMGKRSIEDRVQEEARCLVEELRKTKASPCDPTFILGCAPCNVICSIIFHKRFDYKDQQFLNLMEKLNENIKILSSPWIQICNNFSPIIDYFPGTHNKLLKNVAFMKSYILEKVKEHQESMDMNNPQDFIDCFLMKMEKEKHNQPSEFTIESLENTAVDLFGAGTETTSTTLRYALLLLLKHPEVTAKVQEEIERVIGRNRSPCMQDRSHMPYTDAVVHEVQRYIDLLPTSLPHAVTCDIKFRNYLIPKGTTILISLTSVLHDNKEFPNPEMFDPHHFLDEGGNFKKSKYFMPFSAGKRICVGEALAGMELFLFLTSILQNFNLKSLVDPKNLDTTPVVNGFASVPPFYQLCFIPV
T3 sequence (P10635 whole entry): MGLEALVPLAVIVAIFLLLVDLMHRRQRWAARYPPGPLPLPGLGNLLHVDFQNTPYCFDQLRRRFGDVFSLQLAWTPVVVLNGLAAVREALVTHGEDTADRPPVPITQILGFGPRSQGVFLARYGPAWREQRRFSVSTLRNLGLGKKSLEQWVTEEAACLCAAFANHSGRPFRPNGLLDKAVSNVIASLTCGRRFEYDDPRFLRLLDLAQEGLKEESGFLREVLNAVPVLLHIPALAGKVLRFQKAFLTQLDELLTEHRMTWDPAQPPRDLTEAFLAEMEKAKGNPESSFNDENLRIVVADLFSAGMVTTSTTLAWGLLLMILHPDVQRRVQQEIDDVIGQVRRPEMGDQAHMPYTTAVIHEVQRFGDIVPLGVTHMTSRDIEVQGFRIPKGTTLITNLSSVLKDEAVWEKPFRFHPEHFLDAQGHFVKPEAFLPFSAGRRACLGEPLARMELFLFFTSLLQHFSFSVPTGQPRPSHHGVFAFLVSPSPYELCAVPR

In [1], `Cc1ncsc1-c1ccc(C(C)NC(=O)C2CC(O)CN2C(=O)C(c2cc(N3CCC(CN4CCC(OC5CC(Oc6cc(N7C8CCC7CN(c7cc(-c9ccccc9O)nnc7N)C8)ccn6)C5)CC4)CC3)no2)C(C)C)cc1` (stereo not drawn) [A947] displayed a Compound metabolized of under 10%. In addition, the “Bioavailability after PO administration” value in data set [2] is “did not find bioavailability”. Also, the “Body weight (mean)” value in data set [3] (WF-31, 20 mg/kg IV QW, day 0, 3, 7, 10, 13, 14, 21) was 19.00 and 19.30 and 19.20 and 19.50; in data set [3] (setting [4]), 18.67 and 18.78 and 18.56 and 17.67 and 19.40 and 18.60; in [3] (WF-34, 40 mg/kg IV QW, day 0, 4, 8, 11, 15, 18, 22, 25, 29), 21.10 and 20.20 and 21.22 and 21.33 and 21.89 and 20.33 and 21.25 and 21.50. Further, the IC50 with CYP3A4/5 (pH 7.4, probe midazolam, substrate Midazolam) is 0.54 µM; with CYP3A4/5 (pH 7.4, probe testosterone, substrate Testosterone), over 10 µM; on CYP2C19 (human, human liver microsomes, pH 7.4, probe S-(+)-mephenytoin) it was 3 µM; at CYP2C19, about 3 µM; at CYP2C9 it was over 10 µM; against CYP2D6 it was over 10 µM. Further, the IC50 against CYP2C8 and against CYP1A2 was over 10 µM in each case. Moreover, the Tumor growth inhibition entry with HCC2302 xenograft (HCC2302 xenograft, weekly doses of 20 or 40 mg/kg) is recorded as “dose-dependent tumor growth inhibition”. In the data set with HCC2302 xenograft (setting [4]), the “Tumor volume (mean)” value is 202.88 mm^3 and 192.71 mm^3 and 203.88 mm^3 and 210.27 mm^3 and 204.46 mm^3 and 141.86 mm^3 and 179.41 mm^3.

Source of the values: article PMC11099041, “Tissue distribution and retention drives efficacy of rapidly clearing VHL-based PROTACs” (Communications Medicine, 2024).
